From patent US5824670A, “17-deoxycorticosteroid-21-[O]carboxylic esters, processes for their preparation and pharmaceuticals containing these compounds” (priority 1994, dated 1998)

What was measured:
[1] = tested on: allergic inflammation of the delayed type (oxazolone ear edema); assay: Local antiinflammatory effect in oxazolone ear edema in mice following epicutaneous application; type: in vivo, male NMRI mice; conditions: for inflammatory edematous swelling, difference between right and left auricle weights (x ± s) / Inhibition in %: 24 h; for inflammatory edematous swelling, difference between right and left auricle weights (x ± s): mice; for Inhibition in %: vs control
From the text: 1. Local antiinflammatory effect in oxazolone ear edema in mice following epicutaneous application.
The method described by Evans, D. P. et al., Br. J. Pharmacol 43, 403 (1971) was used. In mice, 4-ethoxy-methylene-2-phenyl-2-oxazoline (oxazolone) produces an allergic inflammation of the delayed type which can be inhibited by corticosteroids. The experimental animals employed are male NMRI mice of 25 g body weight which are divided into groups of 10 animals each. The animals were sensitized by applying 0.1 ml of a 2% solution of oxazolone in acetone to the shaven skin of the abdomen. On the 9th day following this sensitization, the allergic inflammation was triggered by applying 10 μl of a 2% solution of oxazolone/acetone to the inner side of the right ear auricle (control group). In the treated groups, the abovementioned solution contained the test preparations. 24 hours after applying the solutions, the animals were killed with CO2. A circular sample, measuring 8 mm, was punched out from each of the treated right ear auricle and the untreated left ear auricle. The samples were weighed immediately, with the difference between the right and left auricle weights representing the measure of the degree of inflammation. This inflammatory edematous swelling, in mg, was set to equal 100% in the control group, and the inflammation-inhibiting effect of the preparations is given as the percentage inhibition as compared with the control.

[2] = tested on: Gluconeogenesis (liver glycogen and glucose); assay: Systemic effect: Gluconeogenesis in rats; type: in vivo, Male Sprague-Dawley rats
Procedure: 2b. Testing for systemic effect: Gluconeogenesis in rats
Male Sprague-Dawley rats of approximately 140 g in weight were adrenalectomized. They were given an 0.9% solution of sodium chloride as their drinking water. 48 h later, the animals' feed was removed for 24 h. On the day of the experiment (3 days after adrenalectomy and 1 day of starvation), the experimental preparations were administered s.c. (2 ml/kg in sesame oil, with controls only receiving this vehicle). The animals were decapitated 6 h later, with 1 g of liver being removed in each case. The sample was taken up in 5 ml of 0.6M perchloric acid. Following homogenization and centrifugation, glucose was determined in the supernatant. The precipitate (glycogen) was hydrolyzed enzymically with amyloglucosidase, and glucose was also determined in the resulting hydrolysate (hexokinase test kit, from Boehringer Mannheim).

carrageenin paw edema = assay: Systemic activity following subcutaneous administration in the carrageenin paw edema test in rats; type: in vivo, Male Sprague-Dawley rats; conditions: for Increase at 3 h (paw volume) / Increase at 6 h (paw volume): x ± s, * = p<0.05 Dunnett
Procedure: 2a. Testing for systemic activity following subcutaneous administration in the carrageenin paw edema test in rats The method was described by Winter, C. A. et al. in Proc. Soc. exp. Biol. (N.Y.), 111, 544, (1962). Male Sprague-Dawley rats of approximately 200 g body weight, and in group sizes of n=5, were given the substances subcutaneously (0.2 ml/100 g of body weight, dissolved in sesame oil). Controls were given sesame oil alone. 15 minutes later, 0.1 ml of a 0.5% solution of carrageenin was injected into the left hind paw. Prior to this, and at 3 h and 6 h afterwards, the paw volume was measured (ml) and the increase in swelling was ascertained by comparing with the preliminary value. The numbers are mean value and standard deviation (x±s). Statistical significance was assessed using the Dunnett test.

| gluconeogenic effect (in words) ([2]; 0.1 mg/kg, p<0.05, Dunnett's test) | SMILES | inflammatory edematous swelling, difference between right and left auricle weights (x ± s) ([1]; 0.03 mg/ml epicutaneous) [mg] | Inhibition in % ([1]; 0.03 mg/ml epicutaneous) [%] | inflammatory edematous swelling, difference between right and left auricle weights (x ± s) ([1]; 0.1 mg/ml epicutaneous) [mg] | Inhibition in % ([1]; 0.1 mg/ml epicutaneous) [%] | inflammatory edematous swelling, difference between right and left auricle weights (x ± s) ([1]; 0.3 mg/ml epicutaneous) [mg] | Inhibition in % ([1]; 0.3 mg/ml epicutaneous) [%] | effect on paw edema (in words) (carrageenin paw edema; 0.1 mg/kg s.c.) | Increase at 3 h (paw volume) (carrageenin paw edema; 0.1 mg/kg s.c.) [mL] | Increase at 6 h (paw volume) (carrageenin paw edema; 0.1 mg/kg s.c.) [mL] | effect on paw edema (in words) (carrageenin paw edema; 0.3 mg/kg s.c.) | Increase at 3 h (paw volume) (carrageenin paw edema; 0.3 mg/kg s.c.) [mL] | Increase at 6 h (paw volume) (carrageenin paw edema; 0.3 mg/kg s.c.) [mL] | local antiinflammatory effect (in words) ([1]; mouse, in vivo) | advantage (factor) over deoxymethasone regarding gluconeogenic effect ([2]; rat, in vivo) |
| --- | --- | --- | --- | --- | --- | --- | --- | --- | --- | --- | --- | --- | --- | --- | --- |
| already exhibits this undesirable effect | C[C@@H]1C[C@H]2[C@@H]3CCC4=CC(=O)C=C[C@]4(C)[C@@]3(F)[C@@H](O)C[C@]2(C)[C@H]1C(=O)CO [Deoxymethasone, 9α-fluoro-16α-methyl-1(2)-dehydrocorticosterone] | 8.6 ± 3.1 | 36 | 3.9 ± 3.0 | 71 | 2.8 ± 2.3 | 79 | significant effect | 0.28 | 0.23 ± 0.09 | almost completely inhibits the inflammation | 0.17 | 0.03 ± 0.03 | – | – |
| – | C[C@@H]1C[C@H]2[C@@H]3CCC4=CC(=O)C=C[C@]4(C)[C@@]3(F)[C@@H](O)C[C@]2(C)[C@H]1C(=O)COC(=O)/C=C/c1ccccc1 [Cmpnd. I, Deoxymethasone 21-cinnamic ester] | 7.7 ± 3.7 | 43 | 3.9 ± 2.9 | 71 | 2.3 ± 1.3 | 83 | does not | 0.40 ± 0.06 | 0.39 ± 0.12 | practically without effect | 0.46 ± 0.12 | 0.32 ± 0.05 | strong, local antiinflammatory effect | 3-10 |
